Where two headings read alike, the source gives them in different places.
Tests used:
[1] = system: XPA mRNA; test: RT-PCR analysis of XPA mRNA levels after oligonucleotide transfection; assay type: cell-based; conditions: A2780/CP70 cells, 200 nM oligonucleotide with lipofectin, FIG. 3
Description: (§1) Total RNA was isolated from 2×10^6 cells using a total RNA isolation kit (S.N.A.P., Invitrogen, Carlsbad, Calif.) as instructed and was quantitated spectrophotometrically via absorbance at 260 nm. RT-PCR analysis was performed using the Superscript One-Step RT-PCR System (Life Technologies, Rockville, Md.). Ten ng samples of total RNA were used for RT-PCR analyses because it was determined that quantities of RT-PCR products derived from XPA and CSB mRNA varied in a linear fashion when RT-PCR was performed on total RNA samples of 1-50 ng. For CSB, primers: […]
(§2) were selected to amplify a 235-bp segment.
(§3) RT-PCR amplification was performed for 40 cycles to detect low mRNA levels while remaining in the linear range of PCR. Aliquots of amplified DNA were resolved via 1.5% agarose gel electrophoresis and visualized by ethidium bromide staining.

[2] = system: A2780/CP70 ovarian carcinoma cells; test: MTS cell proliferation assay, sensitization to cisplatin or oxaliplatin after oligonucleotide transfection; conditions: for reduction of the ID50 of cisplatin / reduction of the ID50 of oxaliplatin / sensitivity of the cells to cisplatin or oxaliplatin (cytotoxicity of both platinum agents): A2780/CP70 cells transfected with oligonucleotide, three days in drug, MTS assay; for potentiation of cisplatin or oxaliplatin, dose response curves normalized to HYB 1019-transfected cells: A2780/CP70 cells, normalized to control oligonucleotide
Description: (§8) The oligonucleotides targeting CSB (969 and 971) were tested for their ability to sensitize A2780/CP70 cells to cisplatin or oxaliplatin. Cells were transfected with oligonucleotides and 24 hours later were replated on 96 well plates. After culturing in the presence of drug for another three days, cell viability was assessed by the MTS assay.
(§9) Delivery of oligonucleotides into A2780/CP70 cells for RT-PCR and cell proliferation assays was achieved using Lipofectin (Life Technologies, Rockville, Md.) as per the manufacturer's procedure. The final concentration of oligonucleotides was 200 nM and final concentration of lipofectin was 10 μg/ml. After 4 hours incubation with the lipofectin-oligonucleotides mixture, cells were replaced with normal culture medium and treated as indicated for subsequent assays.
(§10) For A2780/CP70 cells transfected with oligonucleotides or mismatched controls, cells were harvested via trypsinization 16-24 hrs after transfection and transferred to 96 well plates at 5×10^3 cells per well. […] Twenty-four hours after transfer, cells in quadruplicate wells were treated with cisplatin (Sigma, St. Louis, Mo.) in 2 mM phosphate buffered saline (PBS) or oxaliplatin National Cancer Institute) in 4 mM PBS at serial dilutions in culture medium or with no drug and maintained for three more days. Cell survival was quantitated using the CellTiter 96 Non-radioactive Cell Proliferation Assay (Promega, Madison, Wis.). […] A Trypan blue exclusion assay was also performed to verify that the values obtained via the cell titer assay correlated to numbers of viable cells. Readings from quadruplicate wells were averaged, normalized with respect to readings obtained from cells unexposed to drug, and are presented +/− standard deviation. Statistical significance was assessed via ANOVA (one-way followed by Dunnett's multiple comparison test) using the Prism software package (GraphPad, Inc. San Diego, Calif.). P values reported are for the multiple comparison test.

[3] = system: Immortalized CS-A fibroblasts; test: MTS proliferation assay of CS-A fibroblasts versus CSA-restored fibroblasts; assay type: cell-based; conditions: 3 days drug exposure
Description: (§4) The cisplatin-resistant ovarian carcinoma cell line A2780/CP70 was maintained in RPMI-1640 medium supplemented with 10% fetal bovine serum, 1× penicillin -streptomycin-neomycin (PSN) (Gibco, Rockville, Md.) 2 mM L-glutamine and 0.2 units/ml insulin (Novo Nordisk Pharmaceuticals, Princeton, N.J.) at 37_C under a humidified 5% CO2 atmosphere. SV40-immortalized CS-B fibroblasts stably transfected with pCSB or control construct (generously provided by Dr. J. Hoeijmakers, Erasmus University, Rotterdam, Netherlands were maintained as previously described (Troelstra et al. (1992) Cell 71:939-953). SV40-immortalized CS-A cell lines (CS3BE.S3.G1+pDR2 and CS3BE.S3.G1+pDR2-CSA), were also maintained as described by Henning et al. (1995) Cell 82:555-564. DNA repair competent (GM 5659C), XP-A (GM2009), and XP-G (GM3021) fibroblasts were obtained from the National Institute of General Medical Sciences Human Genetic Mutant Cell Repository (Camden, N.J.) and maintained as described by Ratner et al. (1998) J. Biolog. Chem. 273:5184-5189. Gamma radiation was administered to cells in a 96 well plate with a Gamma Cell-40 Irradiator (Nordion International, Canada) while the 96 well plate was on ice.
(§5) P values reported are for the multiple comparison test.

[4] = system: Immortalized CS-B fibroblasts; test: MTS proliferation assay of CS-B fibroblasts versus CSB-restored fibroblasts; assay type: cell-based; conditions: 3 days drug exposure
Description: as §4, §5

[5] = system: XP-A fibroblasts; test: MTS proliferation assay of XP-A fibroblasts versus NER proficient 5659C fibroblasts; assay type: cell-based, human
Description: (§6) Primary fibroblasts from XPA, XPG, or repair-competent individuals were exposed to oxaliplatin and assayed as described in FIGS. 1A-D.
as §4, §5

[6] = system: XP-G fibroblasts; test: MTS proliferation assay of XP-G fibroblasts versus NER proficient 5659C fibroblasts; assay type: cell-based, human
Description: as §6, §4, §5

[7] = system: CSB mRNA; test: RT-PCR analysis of CSB mRNA levels after oligonucleotide transfection; assay type: cell-based; conditions: A2780/CP70 cells, 200 nM oligonucleotide with lipofectin, FIG. 3
Description: as §1, §2, §3

[8] = system: A2780/CP70 ovarian carcinoma cells; test: MTS cell proliferation assay, sensitization to oxidizing agents (hydrogen peroxide, gamma radiation); assay type: cell-based; conditions: MTS assay after three days of growth; for sensitivity of cells to hydrogen peroxide: FIG. 7A; for sensitivity of cells to gamma radiation: FIG. 7B
From the text: (§7) FIG. 7A is a graphic representation showing that oligonucleotides targeting CSB mRNA sensitize ovarian carcinoma cells to oxidative damage. A2780/CP70 ovarian carcinoma cells were transfected with oligonucleotides HYB 971 (SEQ ID NO:2) targeting CSB mRNA or control antisense oligonucleotide (HYB 1019) (SEQ ID NO:5) and then transferred to 96-well dishes for exposure to hydrogen peroxide at the indicated concentrations, followed by three days of growth in normal medium and subsequent assessment of cell proliferation via MTS assay.
as §7, with “7B” for “7A”, “gamma radiation” for “hydrogen peroxide”, “doses” for “concentrations,”
as §4, §5

[9] = system: A2780/CP70 ovarian carcinoma cells; test: Plate assay of cell proliferation in the absence of added drug (cell number by hemacytometer); assay type: cell-based; conditions: absence of any other anti-cancer agents, two days in culture
Description: FIG. 8 is a graphic representation showing that anti-CSB oligonucleotides retard cell proliferation in the absence of cytotoxic agents. A2780/CP70 ovarian carcinoma cells were transfected with indicated oligonucleotides and maintained in culture media for two more days to assess cell proliferation rate.
A plate assay was also performed in the absence of added drug. Cells treated with oligonucleotides or mismatched controls were maintained in culture for two days. Cells were then trypsinized and cell number was determined using a hemacytometer. Numbers from three independent experiments were averaged and standard deviation was calculated. Statistical comparison was via paired t-test.

[10] = system: A2780/CP70 ovarian carcinoma cells
Description: as §8, §9, §10

[11] = system: A2780/CP70 cells; test: Growth in soft agar (colony) assay with cisplatin or oxaliplatin; assay type: cell-based; conditions: in the presence of either cisplatin or oxaliplatin, colonies counted 10 days later
Description: An alternative method for assessing the ability of oligonucleotides to inhibit tumor cell proliferation was also utilized. In this method, the transfected cells were transferred to soft agar containing various concentrations of oxaliplatin or cisplatin. Resulting colonies were counted 10 days later.
For growth in soft agar assay, cells transfected the previous day with oligonucleotides as described above were suspended (10^4 cells/well) in 0.5 ml of 0.3% Difco Noble agar (Becton Dickinson & Co. Microbiology Systems, Sparks, Md.) supplemented with complete culture medium and layered over 0.5 ml of 0.8% agar-medium in chambers of 24 well plates. Drug was added (day 0) and colonies counted ten days later after staining with nitroblue tetrazolium (Sigma, St. Louis, Mo.) as previously described (Rockx, et al. (2000) Proc. Nat. Acad. Sci. (USA) 97:10503-8). For this assay, statistical comparison was via paired t-test.

“5′(750)-d(GGTCCATACTCATGTTGATG)-3′ (DNA, backbone and methylation of C not given here) [HYB 963]” was tested, and the “XPA mRNA levels” value [1] was “reduce XPA mRNA levels”, the “reduction of the ID50 of cisplatin” value [2] was “about 25%” and the “reduction of the ID50 of oxaliplatin” value [2] was “about 25%”. The “sensitivity of the cells to cisplatin or oxaliplatin (cytotoxicity of both platinum agents)” value (“sensitivity of the cells” for short) [2] was “increase the sensitivity”.

With `N.N.[Cl][Pt][Cl]` [cisplatin, CIS-diamminedichloroplatinum] the “sensitivity of fibroblasts lacking functional CSA gene product versus restored WT” value [3] was “significantly more sensitive”, the “sensitivity of fibroblasts lacking functional CSB gene product versus restored WT” value [4] was “significantly more sensitive” and the “sensitivity of XP-A fibroblasts versus NER proficient 5659C fibroblasts” value [5] was “significantly more sensitive”. The “sensitivity of XP-G fibroblasts versus NER proficient 5659C fibroblasts” value [6] was “significantly more sensitive”.

In the case of “5′(1612)-d(GCTACATAAGACCAGTGTGC)-3′ (DNA, backbone and methylation of C not given here) [HYB 1019, reference compound]”, the “CSB mRNA levels” value [7] is reported as “did not reduce the level of CSB mRNA” and the “sensitivity of the cells” value [2] is reported as “did not alter the sensitivity”.

In the case of `O=C([O-])C(=O)[O-].[NH-][C@@H]1CCCC[C@H]1[NH-].[Pt+4]` (relative stereo) [oxaliplatin, Cis [(1R, 2R) 1,2-cyclohexanediamine-N,N′ oxalato (2-)-O,O′] platinum], the “sensitivity of fibroblasts lacking functional CSA gene product versus restored WT” value [3] is reported as “significantly more sensitive”, the “sensitivity of fibroblasts lacking functional CSB gene product versus restored WT” value [4] is reported as “significantly more sensitive” and the “sensitivity of XP-A fibroblasts versus NER proficient 5659C fibroblasts” value [5] is reported as “significantly more sensitive”. The “sensitivity of XP-G fibroblasts versus NER proficient 5659C fibroblasts” value [6] was “significantly more sensitive”.

With “5′-(3212)-d(GGAACATCATGGTCTGCTCC)-3′ [HYB 971]” the “reduction of CSB mRNA levels” value [7] was “about 50%”, the “sensitivity of cells to hydrogen peroxide” value [8] was “significantly increased the sensitivity” and the “sensitivity of cells to gamma radiation” value [8] was “significantly increased the sensitivity”. The “reduction of proliferation compared to control oligonucleotide (HYB 1019) or sham transfected cells” value [9] was “about 50%”, the “reduction of the ID50 of cisplatin” value [2] was 70% and the “reduction of the ID50 of oxaliplatin” value [2] was 50%. For the same compound, the “sensitivity of the cells” value [2] was “substantially enhanced the cytotoxicity” and the “potentiation of cisplatin or oxaliplatin, dose response curves normalized to HYB 1019-transfected cells” value [2] was “robust potentiation”.

With “5′(590)-d(CCAAACCTGCACGATACATC)-3′ [HYB 1040, reference compound]” the “XPA mRNA levels” value [1] was “did not reduce the level of XPA mRNA”.

“5′(2037)-d(GGTGACAGCAGCATTTGGAT)-3′ (DNA, backbone not given here) [HYB 969]” was tested, and the “reduction of CSB mRNA levels” value [7] was “about 50%”, the “sensitivity of cells to hydrogen peroxide” value [8] was “significantly increased the sensitivity” and the “sensitivity of cells to gamma radiation” value [8] was “significantly increased the sensitivity”. The “reduction of proliferation compared to control oligonucleotide (HYB 1019) or sham transfected cells” value [9] was “about 50%”, the “sensitivity of the cells” value [10] was “substantially enhanced the cytotoxicity” and the “reduction of the ID50 of cisplatin” value [2] was 70%. The “reduction of the ID50 of oxaliplatin” value [2] was 50% and the “potentiation of cisplatin or oxaliplatin, dose response curves normalized to HYB 1019-transfected cells” value [2] was “robust potentiation”.

“5′(1110)-d(CTGACCTACCACTTCTGCAC)-3′ [HYB 964]” was tested, and the “XPA mRNA levels” value [1] was “reduce XPA mRNA levels”, the “fewer colonies than control HYB 1040 or lipofectin-only (sham) transfected cells” value [11] was “about 50%” and the “reduction of the ID50 of cisplatin” value [2] was “about 25%”. For the same compound, the “reduction of the ID50 of oxaliplatin” value [2] was “about 25%” and the “sensitivity of the cells” value [2] was “increase the sensitivity”.

Reference: US20060052319A9, “Sensitization of cells to cytotoxic agents using oligonucleotides directed to nucleotide excision repair or transcritpion coupled repair genes” (priority 2000, published 2006)
